Results on two compounds are retold here after patent publication US20050215530A1, “Combination therapy for the treatment of cancer” (priority 2002, published 2005).

Assay [1] relates to human LoVo tumour cells. Description: LoVo tumour model. In kind it is in vivo, athymic nude mice. As to conditions: s.c. LoVo xenograft; ZD6126 200 mg/kg i.p. day 0; ZD1839 200 mg/kg/day p.o. days 0-13; 8 mice per group. The method, then:
Athymic nude mice were implanted subcutaneously with 1.5×10^7 human LoVo tumour cells (obtained from European Collection of Cell Cultures, ECACC, CAMR, Salisbury, Wiltshire, SP4 0JG, UK; Cat. no. CCL 229) and tumours allowed to grow until they were approximately 9 mm in diameter. Groups of 8 tumour bearing mice were then treated as follows: • Control animals were dosed with PBSA 0.1 ml/10 g intraperitoneally (i.p.) single bolus on day 0 then about 2 h hours later 0.1% Tween 80 0.1 ml/10 g orally (p.o.) on day 0, followed by 0.1% Tween 80 0.1 ml/10 g p.o. once daily on days 1-13; • ZD6126 alone was dosed 200 mg/kg i.p. on day 0; • ZD1839 alone was dosed 200 mg/kg/day p.o. on days 0-13; and
(in the combination arm) ZD6126 200 mg/kg i.p. on day 0 then about 2 hours later ZD1839 200 mg/kg p.o. dosed on day 0, followed by ZD1839 200 mg/kg p.o. once daily on days 1-13. Tumour growth was measured twice weekly from calliper measurements of tumour diameter and the time taken for tumours to double in size compared using the Mann-Whitney U statistic.

The test system of assay [2] is tumour vasculature. The following applies: reported in Proc. Am Assoc. Cancer Res. 2000; 41: 329; cited from earlier work.
Assay [3] has as its system A549 human NSCLC cells. As to the kind of experiment: A549 NSCLC xenograft model. The following applies: for Tumour size: day 42 after tumour implantation, RT 4 Gy days 8, 9, 15, 16, ZD6126 150 mg/kg i.p. days 10, 17, ZD1839 2.5 mg per day p.o. days 7-11 and 14-18.
Procedure: A549 NSCLC Xenograft Model
A human non-small cell lung cancer (NSCLC) xenograft model was used. Athymic nude mice were injected subcutaneously (s.c.) with A549 human NSCLC cells. Treatment began after 7 days when tumours were established (tumour volume=100-300 mm^3). […] Animals in all groups were sacrificed on day 42 after tumour cell implantation, when the control tumours reached approximately 2.0 cm^3.

For the compound `COc1cc2c(c(OC)c1OC)-c1ccc(OP(=O)(O)O)cc1[C@@H](NC(C)=O)CC2` [ZD6126, N-acetylcolchinol-O-phosphate], the “Growth delay in days for tumours to double in size” value in assay [1] is 3.6 days; p < 0.05. The “effect on tumour vasculature (in words)” value in assay [2] is “selectively disrupts tumour vasculature leading to vessel occlusion and extensive tumour necrosis”. Further, the “inhibition of tumour growth (in words)” value in assay [3] (A549 xenograft, compared with control animals or single agents) is “marked inhibition of tumour growth”. In assay [3], the Tumour size was determined as 1.17 ± 0.10 cm^3 S.D.

As for `COc1cc2ncnc(Nc3ccc(F)c(Cl)c3)c2cc1OCCCN1CCOCC1` [ZD1839, N-(3-chloro-4-fluorophenyl)-7-methoxy-6-(3-morpholinopropoxy)quinazolin-4-amine, reference compound], in assay [1], the “Growth delay in days for tumours to double in size” value was 8.3 days; p < 0.01. In addition, the Tumour size in assay [3] is 1.41 ± 0.08 cm^3 S.D.
